Test [1] concerns SKBR3 (PI3Kα wild type) cells. Briefly: CellTiter-Glo 2.0 luminescent cell viability assay, 72 hours, SKBR3 cells. The format is cell-based. Particulars: Homo sapiens, SK-BR-3, 72 h, SKBR3 (PI3Kα wild type) cells, CellTiter-Glo, approximately 72 hours; read-out: SKBR3 (WT) Viability IC50. The essentials:
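Viability measured via CTG luminescence following roughly 72 hours of compound exposure at 37° C. Dosing used a 10 um starting concentration diluted 1:4 over 10 points; percent-of-vehicle data fitted with a variable-slope four-parameter model for IC50.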

Test [2] concerns T47D (PI3Kα H1047R mutant) cells. As to the kind of experiment: CellTiter-Glo 2.0 luminescent cell viability assay, 72 hours, T47D cells. The note with it: Homo sapiens, T47D, 72 h, T47D (PI3Kα H1047R mutant) cells, CellTiter-Glo, approximately 72 hours; read-out: T47D (H1047R mutant) Viability IC50. Type of test: cell-based. The essentials: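 Viability was measured by CellTiter-Glo 2.0 luminescence after approximately 72 h of compound exposure at 37° C. Plating was 1000 cells per well the day before dosing, with ten 1:4 dilutions from a 10 µM top concentration. Values as percent of vehicle were fitted by variable-slope log(inhibitor) regression to give IC50.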

Where only a bound is given, the exact number is not on record here.

The values that follow come from patent US20260078120A1, “SUBSTITUTED PYRIDOPYRIMIDINONES” (MIRATI THERAPEUTICS, INC., priority 2022, published 2026).

For `Cc1cc([C@@H](C)Nc2ccccc2C(=O)O)c2nc(C3CCN(C)CC3)c(C)c(=O)n2c1` [Example 11-149, (R)-2-((1-(3,7-dimethyl-2-(1-methylpiperidin-4-yl)-4-oxo-4H-pyrido[1,2-a]pyrimidin-9-yl)ethyl)amino)benzoic acid], the concentration for half-maximal inhibition (IC50) in test [1] and in test [2] was above 10 µM each time.
Regarding `Cc1cc([C@@H](C)Nc2ccccc2C(=O)O)c2nc(N3CCN(C4CC4)CC3)c(C#N)c(=O)n2c1` [Example 11-150, (R)-2-((1-(3-cyano-2-(4-cyclopropylpiperazin-1-yl)-7-methyl-4-oxo-4H-pyrido[1,2-a]pyrimidin-9-yl)ethyl)amino)benzoic acid], the IC50 is above 10 µM in test [1] and 0.343 µM in test [2].
With `Cc1cc([C@@H](C)Nc2ccccc2C(=O)O)c2nc(N3CCN(C4CC4)CC3)c(C)c(=O)n2c1` [Example 11-151, (R)-2-((1-(2-(4-cyclopropylpiperazin-1-yl)-3,7-dimethyl-4-oxo-4H-pyrido[1,2-a]pyrimidin-9-yl)ethyl)amino)benzoic acid], the IC50 is above 10 µM in test [1] and 0.347 µM in test [2].
With `Cc1cc([C@@H](C)Nc2ccccc2C(=O)O)c2nc(N3CCN(C4COC4)CC3)c(C#N)c(=O)n2c1` [Example 11-152, (R)-2-((1-(3-cyano-7-methyl-2-(4-(oxetan-3-yl)piperazin-1-yl)-4-oxo-4H-pyrido[1,2-a]pyrimidin-9-yl)ethyl)amino)benzoic acid], the IC50 in test [1] is above 10 µM; in test [2] it was 4.34 µM.
On to `Cc1cc([C@@H](C)Nc2ccccc2C(=O)O)c2nc(N3CCN(C4COC4)CC3)c(C)c(=O)n2c1` [Example 11-153, (R)-2-((1-(3,7-dimethyl-2-(4-(oxetan-3-yl)piperazin-1-yl)-4-oxo-4H-pyrido[1,2-a]pyrimidin-9-yl)ethyl)amino)benzoic acid], for which the IC50 is above 10 µM in test [1] and 0.88 µM in test [2].
With `Cc1cc([C@@H](C)Nc2ccccc2C(=O)O)c2nc(N3CCN(CC(F)(F)F)CC3)c(C#N)c(=O)n2c1` [Example 11-154, (R)-2-((1-(3-cyano-7-methyl-4-oxo-2-(4-(2,2,2-trifluoroethyl)piperazin-1-yl)-4H-pyrido[1,2-a]pyrimidin-9-yl)ethyl)amino)benzoic acid], the IC50 was above 10 µM in test [1] and 0.138 µM in test [2].
As for `Cc1cc([C@@H](C)Nc2ccccc2C(=O)O)c2nc(NCC3(F)CC3)c(C#N)c(=O)n2c1` [Example 11-155, (R)-2-((1-(3-cyano-2-(((1-fluorocyclopropyl)methyl)amino)-7-methyl-4-oxo-4H-pyrido[1,2-a]pyrimidin-9-yl)ethyl)amino)benzoic acid], the IC50 is above 10 µM in test [1] and 0.165 µM in test [2].
The like results for `Cc1cc([C@@H](C)Nc2ccccc2C(=O)O)c2nc(NC[C@H]3CC3(F)F)c(C#N)c(=O)n2c1` [Example 11-156, 2-(((R)-1-(3-cyano-2-((((R)-2,2-difluorocyclopropyl)methyl)amino)-7-methyl-4-oxo-4H-pyrido[1,2-a]pyrimidin-9-yl)ethyl)amino)benzoic acid] were, in that order, above 10 µM and 0.174 µM.
For `Cc1cc([C@@H](C)Nc2ccccc2C(=O)O)c2nc(NC[C@@H]3CC3(F)F)c(C#N)c(=O)n2c1` [Example 11-157, 2-(((R)-1-(3-cyano-2-((((S)-2,2-difluorocyclopropyl)methyl)amino)-7-methyl-4-oxo-4H-pyrido[1,2-a]pyrimidin-9-yl)ethyl)amino)benzoic acid], the figures for the IC50 in test [1] and in test [2] were above 10 µM and 0.221 µM, respectively.
The corresponding values for `Cc1cc([C@@H](C)Nc2ccccc2C(=O)O)c2nc(NCC3CC3(F)F)c(C#N)c(=O)n2c1` (stereo partly drawn) [Example 11-158, 2-(((1R)-1-(3-cyano-2-(((2,2-difluorocyclopropyl)methyl)amino)-7-methyl-4-oxo-4H-pyrido[1,2-a]pyrimidin-9-yl)ethyl)amino)benzoic acid] are above 10 µM and 0.167 µM.
The corresponding values for `Cc1cc([C@@H](C)Nc2ccccc2C(=O)O)c2nc(NCC3(C(F)(F)F)CC3)c(C#N)c(=O)n2c1` [Example 11-159, (R)-2-((1-(3-cyano-7-methyl-4-oxo-2-(((1-(trifluoromethyl)cyclopropyl)methyl)amino)-4H-pyrido[1,2-a]pyrimidin-9-yl)ethyl)amino)benzoic acid] are above 10 µM and 0.176 µM.
The like results for `Cc1cc([C@@H](C)Nc2ccccc2C(=O)O)c2nc(N[C@H](C3CC3)C(F)(F)F)c(C#N)c(=O)n2c1` [Example 11-160, 2-(((R)-1-(3-cyano-2-(((R)-1-cyclopropyl-2,2,2-trifluoroethyl)amino)-7-methyl-4-oxo-4H-pyrido[1,2-a]pyrimidin-9-yl)ethyl)amino)benzoic acid] were, in that order, above 10 µM and 0.657 µM.
Take `Cc1cc([C@@H](C)Nc2ccccc2C(=O)O)c2nc(N[C@@H](C3CC3)C(F)(F)F)c(C#N)c(=O)n2c1` [Example 11-161, 2-(((R)-1-(3-cyano-2-(((S)-1-cyclopropyl-2,2,2-trifluoroethyl)amino)-7-methyl-4-oxo-4H-pyrido[1,2-a]pyrimidin-9-yl)ethyl)amino)benzoic acid]: the results for the IC50 in test [1] and in test [2] were above 10 µM and 1.05 µM, respectively.
`Cc1cc([C@@H](C)Nc2ccccc2C(=O)O)c2nc(N[C@@H](C)C3CC3)c(C#N)c(=O)n2c1` [Example 11-164, 2-(((R)-1-(3-cyano-2-(((S)-1-cyclopropylethyl)amino)-7-methyl-4-oxo-4H-pyrido[1,2-a]pyrimidin-9-yl)ethyl)amino)benzoic acid]: the IC50 was above 10 µM in test [1] and 0.228 µM in test [2].
The corresponding values for `Cc1cc([C@@H](C)Nc2ccccc2C(=O)O)c2nc(N[C@H](C)C3CC3)c(C#N)c(=O)n2c1` [Example 11-165, 2-(((R)-1-(3-cyano-2-(((R)-1-cyclopropylethyl)amino)-7-methyl-4-oxo-4H-pyrido[1,2-a]pyrimidin-9-yl)ethyl)amino)benzoic acid] are above 10 µM and 0.485 µM.
Turning to `Cc1cc([C@@H](C)Nc2ccccc2C(=O)O)c2nc(N[C@@H](C)C3CC3)c(C)c(=O)n2c1` [Example 11-166, 2-(((R)-1-(2-(((S)-1-cyclopropylethyl)amino)-3,7-dimethyl-4-oxo-4H-pyrido[1,2-a]pyrimidin-9-yl)ethyl)amino)benzoic acid], the IC50 in test [1] is above 10 µM; in test [2] it was 0.364 µM.
In the case of `Cc1cc([C@@H](C)Nc2ccccc2C(=O)O)c2nc(N[C@H](C)C3CC3)c(C)c(=O)n2c1` [Example 11-167, 2-(((R)-1-(2-(((R)-1-cyclopropylethyl)amino)-3,7-dimethyl-4-oxo-4H-pyrido[1,2-a]pyrimidin-9-yl)ethyl)amino)benzoic acid], the IC50 is above 10 µM in test [1] and 1.18 µM in test [2].
With `C[C@@H](Nc1ccccc1C(=O)O)c1cc(C(F)F)cn2c(=O)c(C#N)c(N3CCC(F)(F)CC3)nc12` [Example 11-168, (R)-2-((1-(3-cyano-7-(difluoromethyl)-2-(4,4-difluoropiperidin-1-yl)-4-oxo-4H-pyrido[1,2-a]pyrimidin-9-yl)ethyl)amino)benzoic acid], the IC50 was above 10 µM in test [1] and 0.241 µM in test [2].
In the case of `C[C@H](Nc1ccccc1C(=O)O)c1cc(C(F)F)cn2c(=O)c(C#N)c(N3CCC(F)(F)CC3)nc12` [Example 11-169, (S)-2-((1-(3-cyano-7-(difluoromethyl)-2-(4,4-difluoropiperidin-1-yl)-4-oxo-4H-pyrido[1,2-a]pyrimidin-9-yl)ethyl)amino)benzoic acid], the IC50 in test [1] and in test [2] was above 10 µM each time.
Consider `CC(Nc1ccccc1C(=O)O)c1cc(C(F)F)cn2c(=O)c(C#N)c(N3CCC(F)(F)CC3)nc12` (stereo not shown) [Example 11-170, 2-((1-(3-cyano-7-(difluoromethyl)-2-(4,4-difluoropiperidin-1-yl)-4-oxo-4H-pyrido[1,2-a]pyrimidin-9-yl)ethyl)amino)benzoic acid], for which the IC50 in test [1] was above 10 µM; in test [2], 0.167 µM.
The like results for `Cc1c(N2CCC(F)(F)CC2)nc2c([C@@H](C)Nc3ccccc3C(=O)O)cc(C(F)F)cn2c1=O` [Example 11-171, (R)-2-((1-(7-(difluoromethyl)-2-(4,4-difluoropiperidin-1-yl)-3-methyl-4-oxo-4H-pyrido[1,2-a]pyrimidin-9-yl)ethyl)amino)benzoic acid] were, in that order, above 10 µM and 0.227 µM.
As for `Cc1cc([C@@H](C)Nc2ccccc2C(=O)O)c2nc(N3CC4(CCN(c5ccc(C#N)cc5)CC4)C3)c(C#N)c(=O)n2c1` [Example 11-172, (R)-2-((1-(3-cyano-2-(7-(4-cyanophenyl)-2,7-diazaspiro[3.5]nonan-2-yl)-7-methyl-4-oxo-4H-pyrido[1,2-a]pyrimidin-9-yl)ethyl)amino)benzoic acid], the IC50 in test [1] was above 10 µM; in test [2] it was 0.21 µM.
The corresponding values for `Cc1cc([C@@H](C)Nc2ccccc2C(=O)O)c2nc(N3CCN(c4cn(C)nc4C(F)(F)F)CC3)c(C#N)c(=O)n2c1` [Example 11-173, (R)-2-((1-(3-cyano-7-methyl-2-(4-(1-methyl-3-(trifluoromethyl)-1H-pyrazol-4-yl)piperazin-1-yl)-4-oxo-4H-pyrido[1,2-a]pyrimidin-9-yl)ethyl)amino)benzoic acid] are above 10 µM and 0.145 µM.
